Assay results published in patent publication US20160264636A1, “PEPTIDE INHIBITORS OF TEAD/YAP-TAZ INTERACTION” (UNIVERSITE PIERRE ET MARIE CURIE (PARIS 6), priority 2013, published 2016).
Peptide text beside a SMILES is read from it.

Key:
[1] = system: MP41 uveal melanoma cells; experiment: MTT cytotoxicity assay, MP41; assay type: cell-based, human; conditions: 72 h
Protocol: (§1) The cytotoxicity of penetrating peptides or chemotherapeutic agents, alone or in combination, was evaluated by the (3-(4,5-dimethylthiazol-2-yl)-2,5-diphenyltetrazolium bromide) tetrazolium (MTT) reduction assay. The cells were seeded in 96-well plates (100 μL/well) at a cell density defined from growth curves. After 24 hours of incubation, cells were treated with the peptides for 72 hours. The wells were rinsed two times with RPMI. After washing, 10 μl of stock MTT solution (5 mg/ml; MTT (SIGMA #M-2128) in PBS Dubecco's 1× without Ca^2+ and Mg^2+) was added to a final volume of 100 μl of culture medium. Cell lines were incubated for additional 4 hours at 37° C. under humid atmosphere with 5% (v/v) CO2. The formation of blue formazan crystals was detected under a microscope. An equal volume of 10% SDS (MERCK, #926.238) in 10 mM HCl was added to each well and the plate was placed in the incubator overnight to dissolve formazan crystals. The plates were mixed to ensure complete solubilisation of formazan crystals and absorbance was measured at 570 nm and 620 nm. The percentage of viable cells was estimated using the formula: % cell viability=ΔOD(570-620) treated/ΔOD(570-620)control×100.
MP41, MP46 and MP66 cell lines come from uveal melanoma patient derived xenografts. They were cultured in RPMI medium supplemented with 20% of FCS.
All the uveal melanoma cell lines were treated for 72 h with different concentrations of the peptides TAZ, “LV”, YAP and TEAD (SEQ ID NO: 35, 36, 37). Cytotoxicity was analysed as described in example 2. […] The best effect was shown in MP41 with about 40% cytotoxicity at 100 μM.

[2] = system: MP66 uveal melanoma cells; experiment: MTT cytotoxicity assay, MP66; assay type: cell-based, human; conditions: MM66 (so in the source); 100 μM; 72 h
Protocol: as §1, with “treated/ΔOD(570-620)control×100. […]” for “treated/ΔOD(570-620)control×100.”
(§2) All the uveal melanoma cell lines were treated for 72 h with different concentrations of the peptides TAZ, “LV”, YAP and TEAD (SEQ ID NO: 35, 36, 37). Cytotoxicity was analysed as described in example 2. […]

[3] = system: MP46 uveal melanoma cells; assay type: cell-based, human; conditions: 72 h
Protocol: as §1, with “treated/ΔOD(570-620)control×100. […]” for “treated/ΔOD(570-620)control×100.”
as §2

[4] = system: colon, lung and ovarian cancer cell lines; experiment: MTT cytotoxicity, comparison of TAZ LV and VL peptides; assay type: cell-based, human; conditions: all lines tested except ES2: HCT116, HT29, SW480, OVCAR8, A549, HT1975; 72 h; 0.1 to 100 μM (FIGS. 5 to 8)
Protocol: as §1

ES2 cells = experiment: MTT cytotoxicity assay, ES2; assay type: cell-based; conditions: 72 h, 0.1 to 100 μM (FIG. 7)
Protocol: as §1
ES2, IGROV-1, OVCAR8 and SKOV3 cell lines come from human ovarian cancer.
Cell-penetrating peptides (CPPs) comprising the binding site of TEAD to TAZ or YAP or of YAP to TEAD (TAZ, TEAD and YAP peptides, respectively) were chemically synthesized. The effect of the peptides on cell viability was assayed on several human ovarian cancer cell lines. All the ovarian cancer cell lines were treated for 72 h with different peptide concentrations. Cytotoxicity was analysed as described in example 2.

| SMILES | IC50 [1] | cytotoxicity [2] | IC50 [3] | viability ([1]; human, 25 µM) | effect on cellular viability, TAZ “LV” compared with TAZ “VL” [4] | viability ([3]; human, 25 µM) | effect on cellular viability, TAZ “LV” compared with TAZ “VL” (ES2 cells) |
| --- | --- | --- | --- | --- | --- | --- | --- |
| CC[C@H](C)[C@H](NC(=O)[C@H](CCCCN)NC(=O)[C@H](CCCCN)NC(=O)[C@H](CCCCN)NC(=O)[C@H](CCCCN)NC(=O)[C@@H](N)C(C)C)C(=O)N[C@@H](CCCCN)C(=O)N[C@@H](C)C(=O)N[C@@H](CCC(=O)O)C(=O)N[C@H](C(=O)N[C@@H](CCCCN)C(=O)N[C@H](C(=O)N[C@@H](CCCNC(=N)N)C(=O)N[C@@H](CC(C)C)C(=O)N[C@@H](CCC(N)=O)C(=O)N[C@@H](CC(C)C)C(=O)N[C@H](C(=O)N[C@@H](CCC(=O)O)C(=O)N[C@@H](Cc1ccccc1)C(=O)N[C@@H](CO)C(=O)N[C@@H](C)C(=O)N[C@@H](Cc1ccccc1)C(=O)N[C@H](C(=O)N[C@@H](CCC(=O)O)C(=O)N1CCC[C@H]1C(=O)N1CCC[C@H]1C(=O)N[C@@H](CC(=O)O)C(=O)N[C@@H](C)C(=O)N[C@H](C(=O)N[C@@H](CC(=O)O)C(=O)O)C(C)C)C(C)C)C(C)C)[C@@H](C)CC)[C@@H](C)CC [TEAD] (H-VKKKKIKAEIKIRLQLVEFSAFVEPPDAVD-OH; N-terminus and C-terminus assumed) | 35 µM | 60% | 44 µM |  |  |  |  |
| CC[C@H](C)[C@H](NC(=O)[C@H](CCCCN)NC(=O)[C@H](CCCCN)NC(=O)[C@H](CCCCN)NC(=O)[C@H](CCCCN)NC(=O)[C@@H](N)C(C)C)C(=O)N[C@@H](CCCCN)C(=O)N[C@@H](C)C(=O)N[C@@H](CCC(=O)O)C(=O)N[C@H](C(=O)N[C@@H](CCCCN)C(=O)N[C@H](C(=O)N1CCC[C@H]1C(=O)N1CCC[C@H]1C(=O)N[C@@H](Cc1c[nH]cn1)C(=O)N[C@@H](C)C(=O)N[C@@H](Cc1ccccc1)C(=O)N[C@@H](Cc1ccccc1)C(=O)N[C@@H](CC(C)C)C(=O)N[C@H](C(=O)N[C@@H](CCCCN)C(=O)N[C@@H](Cc1ccccc1)C(=O)N[C@@H](Cc1c[nH]c2ccccc12)C(=O)N[C@@H](C)C(=O)N[C@@H](CC(=O)O)C(=O)N[C@@H](CC(C)C)C(=O)N[C@@H](CC(N)=O)C(=O)N[C@@H](Cc1c[nH]c2ccccc12)C(=O)NCC(=O)N1CCC[C@H]1C(=O)N[C@@H](CO)C(=O)NCC(=O)N[C@@H](CCC(=O)O)C(=O)N[C@@H](CCC(=O)O)C(=O)N[C@@H](C)C(=O)NCC(=O)N[C@@H](C)C(=O)NCC(=O)O)C(C)C)[C@@H](C)CC)[C@@H](C)CC [TAZ “LV”] (H-VKKKKIKAEIKIPPHAFFLVKFWADLNWGPSGEEAGAG-OH; N-terminus and C-terminus assumed) |  |  |  | about 20% | same effect | about 20% | more effective than TAZ “VL” |
